# Measured values taken from US9968541B2, “Optical treatment methods” (ON Light Sciences Inc., priority 2011, dated 2018).
# Entries after “also recorded” stand apart in the source; their conditions may differ.
# How the values were obtained:
# [1] = system: cavitation-induced whitening immediately after laser treatment of tattoos; assay: Pilot study: topical perfluorodecalin by cotton swab prior to each laser pass in tattoo removal; assay type: in vivo, patients
# Protocol: Results of a pilot study related to the disclosure will be first released publicly in April 2012. The pilot study included tattoo removal with repeated laser exposures in one session, in which the need for 20-minute treatment intervals was eliminated. The pilot study was conducted at the Laser & Skin Surgery Center of New York (New York, N.Y.), under the direction of Roy G. Geronemus MD. […] A treatment delay of twenty minutes for resolution of whitening limited practicality of the technique, requiring up to eighty minutes of treatment time per visit. Medical grade, sterile perfluorodecalin, an inert, non-toxic liquid fluorocarbon with properties including optical clarity and gas-carrying capacity, was evaluated in the pilot study in an effort to speed resolution of cavitation-induced whitening immediately after laser treatment of tattoos. Perfluorodecalin may increase the optical penetration of lasers. The pilot study was performed in consenting patients with unwanted tattoos. Each tattoo was treated in whole or part with topical perfluorodecalin by cotton swab prior to each laser pass. Lasers and settings were selected by a dermatologist. During and after treatments, extent and duration of whitening reaction was assessed as well as appearance of adverse effects, including pigmentary change or scarring. […] In fifteen tattoos, perfluorodecalin was applied prior to each laser pass and the tattoo was treated with three Q-switched ruby laser passes immediately following one another in a single session. In five tattoos, a portion was treated with perfluorodecalin prior to a single pass of Q-switched ruby or Nd:YAG laser. […] After each laser pass, the whitening reaction resolved within five seconds of perfluorodecalin application. All treatments were well-tolerated with local anesthesia.
# [2] = as described by Tsai; cited from earlier work
# [3] = cited from earlier work
structure (smiles),measurement,setting,value
FC1(F)C(F)(F)C(F)(F)C2(F)C(F)(F)C(F)(F)C(F)(F)C(F)(F)C2(F)C1(F)F (stereo not drawn) [perfluorodecalin],time for whitening reaction to resolve after perfluorodecalin application,"[1]; after each laser pass, Q-switched ruby or Nd:YAG laser, topical by cotton swab, patients' tattoos",five
same,adverse effects (including pigmentary change or scarring),[1]; follow-up at 3-6 weeks,no adverse effects occurred
same,"healing (amount of blistering, crusting or other changes) compared with previous treatments",[1]; subject-reported,normal to improved healing
same,resolution of post-laser whitening,"[1]; topical application with cotton swab, laser therapy of tattoos",effectively resolve whitening in laser therapy within seconds; also recorded: resolves post-laser whitening within seconds
same,treatment time for multiple passes in a single session,"[1]; up to four passes in a single session, compared to about 80 minutes with R20",about 5 minutes
same,tolerability of treatments,"[1]; with local anesthesia, perfluorodecalin prior to each laser pass",well-tolerated
same,toxicity,[2],non-toxic
same,solubility in water,[3]; as described by Tsai,very low solubility in water
same,thermal stability (stable up to),[3]; generally regarded,about 400 °C
